Assay results as given in patent US20250197382A1, “KIF18A INHIBITOR” (WIGEN BIOMEDICINE TECHNOLOGY (SHANGHAI) CO., LTD., priority 2022, published 2025).
pIC50: −log10 of the molar value.

biological target: Recombinant human KIF18A (1-467His-tagged) protein (Homo sapiens (Human), UniProt Q8NI77); assay: KIF18A enzyme assay (microtubule-stimulated ATPase activity, ADP-Glo); assay type: biochemical; settings: 30 nM KIF18A, ATP 75 μM, read-out: inhibitory activity against KIF18A IC50
How it was run: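 Baculovirus-expressed human KIF18A (1-467, His-tagged; 30 nM) preincubated 15 min at room temperature with compound (22-point 2-fold series) in pH 7.5 Tris buffer containing 30 μg/mL pig microtubules and 1 μM paclitaxel.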

Recombinant human KIF18A (1-467His-tagged) protein, sequence (Q8NI77 1-467): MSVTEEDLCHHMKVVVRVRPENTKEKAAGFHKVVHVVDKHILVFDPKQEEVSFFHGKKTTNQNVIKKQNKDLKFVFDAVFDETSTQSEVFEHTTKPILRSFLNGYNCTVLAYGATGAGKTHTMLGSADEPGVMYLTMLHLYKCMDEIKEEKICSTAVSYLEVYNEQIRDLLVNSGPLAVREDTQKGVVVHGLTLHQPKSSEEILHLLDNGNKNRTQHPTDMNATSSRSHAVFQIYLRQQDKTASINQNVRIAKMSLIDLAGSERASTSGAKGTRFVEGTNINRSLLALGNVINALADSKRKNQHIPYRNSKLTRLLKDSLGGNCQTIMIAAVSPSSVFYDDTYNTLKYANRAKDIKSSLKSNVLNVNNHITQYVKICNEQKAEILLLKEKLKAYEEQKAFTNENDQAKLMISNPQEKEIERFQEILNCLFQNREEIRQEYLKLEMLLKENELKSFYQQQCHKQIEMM
Recombinant human KIF18A (1-467His-tagged) protein, sequence (P02550 whole entry partner): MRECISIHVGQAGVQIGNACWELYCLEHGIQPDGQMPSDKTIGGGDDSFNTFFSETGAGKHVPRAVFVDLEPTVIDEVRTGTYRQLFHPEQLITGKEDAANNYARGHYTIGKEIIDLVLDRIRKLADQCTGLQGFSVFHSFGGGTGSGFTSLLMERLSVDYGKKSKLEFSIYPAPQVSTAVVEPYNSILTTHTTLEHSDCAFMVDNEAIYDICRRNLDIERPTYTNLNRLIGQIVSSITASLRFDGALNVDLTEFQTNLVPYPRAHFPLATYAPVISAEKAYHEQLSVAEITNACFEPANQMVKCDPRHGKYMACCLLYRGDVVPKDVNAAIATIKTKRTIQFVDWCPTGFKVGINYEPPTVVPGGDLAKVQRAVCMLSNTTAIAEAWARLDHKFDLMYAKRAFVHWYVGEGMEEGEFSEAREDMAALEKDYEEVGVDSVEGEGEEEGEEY
Recombinant human KIF18A (1-467His-tagged) protein, sequence (P02554 whole entry partner): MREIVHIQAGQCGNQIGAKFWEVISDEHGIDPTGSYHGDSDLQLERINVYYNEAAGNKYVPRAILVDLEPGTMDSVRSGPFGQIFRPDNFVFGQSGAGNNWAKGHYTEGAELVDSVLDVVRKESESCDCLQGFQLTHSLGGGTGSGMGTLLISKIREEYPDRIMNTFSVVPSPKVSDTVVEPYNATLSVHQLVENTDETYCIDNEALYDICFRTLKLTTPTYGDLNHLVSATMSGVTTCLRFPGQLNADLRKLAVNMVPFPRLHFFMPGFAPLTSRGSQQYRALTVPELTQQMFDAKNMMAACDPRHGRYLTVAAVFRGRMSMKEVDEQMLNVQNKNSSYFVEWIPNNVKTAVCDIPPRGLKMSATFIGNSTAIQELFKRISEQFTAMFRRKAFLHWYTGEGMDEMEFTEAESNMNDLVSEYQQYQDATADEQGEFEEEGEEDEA

Row | pIC50 | SMILES
1 | ≥ 7.00 | O=C(Nc1cc2c(c(N3CCC(F)(F)CC3)n1)NCCC2)c1ccc(NS(=O)(=O)CCO)cc1N1CCC2(CC1)CC2 [Compound 542]
2 | ≥ 7.00 | C[C@@H]1CN(c2nc(C(=O)Nc3ccc(S(=O)(=O)N[C@@H](C)CO)cc3N3CCC4(CC3)CC4)cc3ccn(C)c23)CCO1 [Compound 511]
3 | ≥ 7.00 | Cn1ccc2cc(C(=O)Nc3ccc(NS(=O)(=O)CCO)cc3N3CCC4(CC3)CC4)nc(N3CC4CC4C3)c21 (centres unmarked) [Compound 490]
4 | ≥ 7.00 | C[C@@H]1CN(c2cc(C(=O)Nc3ccc(S(=O)(=O)N[C@@H](C)CO)cc3N3CCC4(CC3)CC4)cc3c2N(C)CC3)CCO1 [Compound 319]
5 | ≥ 7.00 | Cn1ccc2cc(C(=O)Nc3ccc(S(=O)(=O)NCCO)cc3N3CCC4(CC3)CC4)cc(OCCC(F)(F)F)c21 [Compound 437]
6 | ≥ 7.00 | C[C@H]1CN(c2cc(C(=O)Nc3ccc(S(=O)(=O)NCCO)cc3N3CCC4(CC3)CC4)cc3ccn(C)c23)CCO1 [Compound 435]
7 | ≥ 7.00 | CN1CCc2cc(C(=O)Nc3ccc(S(=O)(=O)NCCO)cc3N3CCC4(CC3)CC4)nc(NC(C)(C)CO)c21 [Compound 379]
8 | ≥ 7.00 | C[C@@H]1CN(c2nc(NC(=O)c3ccc(NS(=O)(=O)CCO)cc3N3CCC4(CC3)CC4)cc3ccn(C)c23)CCO1 [Compound 450]
9 | ≥ 7.00 | CN1CCc2cc(C(=O)Nc3ccc(S(=O)(=O)NCCO)cc3N3CCC4(CC3)CC4)cc(N3CCC(C)(F)C3)c21 (centres unmarked) [Compound 312]
10 | ≥ 7.00 | Cn1ccc2cc(C(=O)Nc3ccc(S(=O)(=O)NCCO)cc3N3CCC4(CC3)CC4)nc(N3CC(F)(F)C3)c21 [Compound 500]
11 | ≥ 7.00 | C[C@H]1CN(c2cc(C(=O)Nc3ccc(NS(=O)(=O)CCO)cc3N3CCC4(CC3)CC4)cc3c2N(C)CC3)CCO1 [Compound 291]
12 | ≥ 7.00 | Cn1ccc2cc(NC(=O)c3ccc(NS(=O)(=O)CCO)cc3N3CCC4(CC3)CC4)cc(NC(C)(C)CO)c21 [Compound 395]
13 | ≥ 7.00 | C[C@@H]1CN(c2cc(C(=O)Nc3ccc(NS(=O)(=O)[C@H](C)CO)cc3N3CCC4(CC3)CC4)cc3ccn(C)c23)CCO1 [Compound 432]
14 | ≥ 7.00 | Cn1ccc2cc(C(=O)Nc3ccc(S(=O)(=O)NCCO)cc3N3CCC4(CC3)CC4)cc(N3CCC(C)(F)C3)c21 (centres unmarked) [Compound 440]
15 | ≥ 7.00 | CN1CCc2cc(C(=O)Nc3ccc(S(=O)(=O)NCCO)cc3N3CCC4(CC3)CC4)nc(OCCC(F)(F)F)c21 [Compound 373]
16 | ≥ 7.00 | Cn1ccc2cc(C(=O)Nc3ccc(NS(=O)(=O)CCO)cc3N3CCC4(CC3)CC4)cc(N3CCC(C)(F)C3)c21 (centres unmarked) [Compound 424]
17 | ≥ 7.00 | Cn1ccc2cc(NC(=O)c3ccc(S(=O)(=O)NCCO)cc3N3CCC4(CC3)CC4)cc(N3CCC(F)CC3)c21 [Compound 409]
18 | ≥ 7.00 | C[C@@H]1CN(c2nc(NC(=O)c3ccc(S(=O)(=O)N[C@@H](C)CO)cc3N3CCC4(CC3)CC4)cc3c2N(C)CC3)CCO1 [Compound 351]
19 | ≥ 7.00 | CN1CCc2cc(C(=O)Nc3ccc(S(=O)(=O)NCCO)cc3N3CCC4(CC3)CC4)cc(N3CCC(F)(F)CC3)c21 [Compound 305]
20 | ≥ 7.00 | Cn1ccc2cc(NC(=O)c3ccc(S(=O)(=O)NCCO)cc3N3CCC4(CC3)CC4)nc(N3CCC(F)CC3)c21 [Compound 473]
21 | ≥ 7.00 | O=C(Nc1cc2c(c(N3CCC(F)(F)CC3)c1)NCCC2)c1ccc(NS(=O)(=O)CCO)cc1N1CCC2(CC1)CC2 [Compound 541]
22 | ≥ 7.00 | Cn1ccc2cc(NC(=O)c3ccc(S(=O)(=O)NCCO)cc3N3CCC4(CC3)CC4)nc(N3CCOCC3)c21 [Compound 476]
23 | ≥ 7.00 | C[C@H](CO)S(=O)(=O)Nc1ccc(C(=O)Nc2cc3ccn(C)c3c(N3CCC(F)(F)CC3)n2)c(N2CCC3(CC2)CC3)c1 [Compound 462]
24 | ≥ 7.00 | Cn1ccc2cc(C(=O)Nc3ccc(S(=O)(=O)NCCO)cc3N3CCC4(CC3)CC4)nc(OCCC(F)(F)F)c21 [Compound 501]
25 | ≥ 7.00 | C[C@@H](CO)S(=O)(=O)Nc1ccc(C(=O)Nc2cc3c(c(N4CCC(F)(F)CC4)n2)N(C)CC3)c(C2CCC3(CC2)CC3)c1 [Compound 333]
26 | ≥ 7.00 | C[C@@H]1CN(c2cc(C(=O)Nc3ccc(NS(=O)(=O)[C@H](C)CO)cc3N3CCC4(CC3)CC4)cc3c2N(C)CC3)CCO1 [Compound 304]

The remaining lines, values behind:

Row | SMILES | pIC50
27 | C[C@@H](CO)S(=O)(=O)Nc1ccc(C(=O)Nc2cc3c(c(N4CCC(F)(F)CC4)n2)OCC3)c(N2CCC3(CC2)CC3)c1 [Compound 77] | ≥ 7.00
28 | C[C@@H](CO)S(=O)(=O)Nc1ccc(C(=O)Nc2cc3ccoc3c(N3CCC(F)(F)CC3)n2)c(N2CCC3(CC2)CC3)c1 [Compound 205] | ≥ 7.00
29 | CC(C)(CO)Nc1nc(NC(=O)c2ccc(S(=O)(=O)NCCO)cc2N2CCC3(CC2)CC3)cc2c1OCC2 [Compound 91] | ≥ 7.00
30 | O=C(Nc1cc2c(c(N3CCC4(CC4)C3)c1)OCC2)c1ccc(S(=O)(=O)NCCO)cc1N1CCC2(CC1)CC2 [Compound 22] | ≥ 7.00
31 | C[C@H]1CN(c2cc(NC(=O)c3ccc(S(=O)(=O)NCCO)cc3N3CCC4(CC3)CC4)cc3c2N(C)CC3)CCO1 [Compound 275] | ≥ 7.00
32 | C[C@@H]1CN(c2nc(C(=O)Nc3ccc(S(=O)(=O)NCCO)cc3N3CCC4(CC3)CC4)cc3c2OCC3)CCO1 [Compound 114] | ≥ 7.00
33 | C[C@H](CO)S(=O)(=O)Nc1ccc(NC(=O)c2cc3c(c(N4CCC(F)(F)CC4)n2)OCC3)c(N2CCC3(CC2)CC3)c1 [Compound 110] | ≥ 7.00
34 | O=C(Nc1cc2c(c(N3CCOCC3)n1)OCC2)c1ccc(NS(=O)(=O)CCO)cc1N1CCC2(CC1)CC2 [Compound 76] | ≥ 7.00
35 | C[C@@H]1CN(c2cc(C(=O)Nc3ccc(NS(=O)(=O)[C@@H](C)CO)cc3N3CCC4(CC3)CC4)cc3ccoc23)CCO1 [Compound 175] | ≥ 7.00
36 | CC(C)(CO)Nc1cc(NC(=O)c2ccc(S(=O)(=O)NCCO)cc2N2CCC3(CC2)CC3)cc2ccoc12 [Compound 155] | ≥ 7.00
37 | C[C@H](CO)S(=O)(=O)Nc1ccc(C(=O)Nc2cc3c(c(N4CCC(F)(F)CC4)c2)N(C)CC3)c(N2CCC3(CC2)CC3)c1 [Compound 270] | ≥ 7.00
38 | O=C(Nc1cc(N2CC(F)(F)C2)c2occc2c1)c1ccc(NS(=O)(=O)CCO)cc1N1CCC2(CC1)CC2 [Compound 132] | ≥ 7.00
39 | O=C(Nc1cc2ccoc2c(N2CC(F)(F)C2)n1)c1ccc(NS(=O)(=O)CCO)cc1N1CCC2(CC1)CC2 [Compound 196] | ≥ 7.00
40 | O=C(Nc1ccc(NS(=O)(=O)CCO)cc1N1CCC2(CC1)CC2)c1cc2c(c(OC3CCC3)c1)OCC2 [Compound 39] | ≥ 7.00
41 | CC(C)(CO)Nc1nc(C(=O)Nc2ccc(S(=O)(=O)NCCO)cc2N2CCC3(CC2)CC3)cc2c1OCC2 [Compound 123] | ≥ 7.00
42 | CN1CCc2cc(NC(=O)c3ccc(S(=O)(=O)NCCO)cc3N3CCC4(CC3)CC4)cc(NC(C)(C)CO)c21 [Compound 283] | ≥ 7.00
43 | CC1(F)CCN(c2nc(NC(=O)c3ccc(NS(=O)(=O)CCO)cc3N3CCC4(CC3)CC4)cc3ccoc23)C1 (centres unmarked) [Compound 200] | ≥ 7.00
44 | C[C@@H](CO)NS(=O)(=O)c1ccc(C(=O)Nc2cc3c(c(N4CCC(F)(F)CC4)c2)N(C)CC3)c(N2CCC3(CC2)CC3)c1 [Compound 285] | ≥ 7.00

Row | SMILES | pIC50
45 | CN1CCc2cc(NC(=O)c3ccc(NS(=O)(=O)CCO)cc3N3CCC4(CC3)CC4)cc(N3CC(F)(F)C3)c21 [Compound 260] | ≥ 7.00
46 | O=C(Nc1ccc(S(=O)(=O)NCCO)cc1N1CCC2(CC1)CC2)c1cc2c(c(N3CC(F)(F)C3)c1)OCC2 [Compound 52] | ≥ 7.00
47 | O=C(Nc1cc2c(c(N3CCOCC3)c1)OCC2)c1ccc(NS(=O)(=O)CCO)cc1N1CCC2(CC1)CC2 [Compound 12] | ≥ 7.00
48 | C[C@@H]1CN(c2nc(NC(=O)c3ccc(NS(=O)(=O)CCO)cc3N3CCC4(CC3)CC4)cc3ccoc23)CCO1 [Compound 194] | ≥ 7.00
49 | O=C(Nc1ccc(S(=O)(=O)NCCO)cc1N1CCC2(CC1)CC2)c1cc2ccoc2c(OC2CCC2)n1 [Compound 247] | ≥ 7.00
50 | CC1(F)CCN(c2cc(C(=O)Nc3ccc(NS(=O)(=O)CCO)cc3N3CCC4(CC3)CC4)cc3ccoc23)C1 (centres unmarked) [Compound 168] | ≥ 7.00
51 | C[C@H](CO)S(=O)(=O)Nc1ccc(NC(=O)c2cc(N3CCC(F)(F)CC3)c3occc3c2)c(N2CCC3(CC2)CC3)c1 [Compound 174] | ≥ 7.00
52 | O=C(Nc1ccc(S(=O)(=O)NCCO)cc1N1CCC2(CC1)CC2)c1cc2c(c(N3CCOCC3)n1)OCC2 [Compound 124] | ≥ 7.00
53 | C[C@H](CO)NS(=O)(=O)c1ccc(C(=O)Nc2cc3c(c(N4CCC(F)(F)CC4)c2)N(C)CC3)c(N2CCC3(CC2)CC3)c1 [Compound 286] | ≥ 7.00
54 | O=C(Nc1ccc(NS(=O)(=O)CCO)cc1N1CCC2(CC1)CC2)c1cc2ccoc2c(OC2CCC2)n1 [Compound 231] | ≥ 7.00
55 | C[C@@H]1CN(c2cc(NC(=O)c3ccc(NS(=O)(=O)[C@H](C)CO)cc3N3CCC4(CC3)CC4)cc3c2N(C)CC3)CCO1 [Compound 272] | ≥ 7.00
56 | O=C(Nc1ccc(NS(=O)(=O)CCO)cc1N1CCC2(CC1)CC2)c1cc2ccoc2c(N2CC3CC3C2)n1 (centres unmarked) [Compound 234] | ≥ 7.00
57 | C[C@@H](CO)NS(=O)(=O)c1ccc(C(=O)Nc2cc3c(c(N4CCC(F)(F)CC4)c2)OCC3)c(N2CCC3(CC2)CC3)c1 [Compound 29] | ≥ 7.00
58 | C[C@H]1CN(c2nc(C(=O)Nc3ccc(S(=O)(=O)NCCO)cc3N3CCC4(CC3)CC4)cc3c2OCC3)CCO1 [Compound 115] | ≥ 7.00
59 | O=C(Nc1cc2c(c(N3CCC(F)CC3)n1)OCC2)c1ccc(NS(=O)(=O)CCO)cc1N1CCC2(CC1)CC2 [Compound 73] | ≥ 7.00
60 | C[C@@H]1CN(c2cc(C(=O)Nc3ccc(NS(=O)(=O)[C@H](C)CO)cc3N3CCC4(CC3)CC4)cc3ccoc23)CCO1 [Compound 176] | ≥ 7.00
61 | O=C(Nc1ccc(S(=O)(=O)NCCO)cc1N1CCC2(CC1)CC2)c1cc2c(c(N3CCOCC3)c1)OCC2 [Compound 60] | ≥ 7.00
62 | C[C@@H](CO)NS(=O)(=O)c1ccc(NC(=O)c2cc3c(c(N4CCC(F)(F)CC4)c2)OCC3)c(N2CCC3(CC2)CC3)c1 [Compound 61] | ≥ 7.00
